Data: patent US12533353B2, “Methods of treatment of cancer comprising CDC7 inhibitors” (CARNA BIOSCIENCES, INC., priority 2018, dated 2026)
Where two headings read alike, the source gives them in different places.

Assays:
[1] = In vitro metabolism in hepatocytes; format: in vitro ADME, human
Description: Eleven metabolites were identified across species, of which 6 occurred in the human matrix. One human-specific metabolite was identified, but only at trace levels. The mouse, rat and dog hepatocyte metabolite profiles contained all the other human metabolites.

[2] = Absolute oral bioavailability; conditions: in vivo, free base suspension, fasted, range given for mouse, rat and dog together, read-out: absolute oral bioavailability (% F)
[3] = system: AML-blast progenitors; assay: 3D growth in methylcellulose matrix, 14 days; format: cell-based
Procedure: (§1) The anti-proliferative activity of SRA141 (0.3-5 μM) was also evaluated in additional 3D growth studies conducted in a methylcellulose growth matrix using normal human myeloid (n=3) and AML-blast progenitors incubated for 14 days.

[4] = system: normal human myeloid progenitors (normal bone marrow); assay: 3D growth in methylcellulose matrix, 14 days; format: cell-based
Procedure: as §1

[5] = Plasma concentrations by LC-MS/MS after repeat oral dosing, non-tumor bearing nude rats; format: in vivo, rat; conditions: oral 50, 100 or 150 mg/kg, after last dose
Procedure: Non-tumor bearing female nude rats were treated orally with SRA141 (n=3 per route) at 50 mg/kg (QD×12 days) or 100 or 150 mg/kg (5 days on/2 days off/5 days on). The vehicle was 0.5% CMC-Na/1% Lutrol in water. SRA141 plasma concentrations were determined by LC-MS/MS following last dose.

[6] = system: Phosphorylation of MCM2 at Ser53 (Colo-205 cells); assay: Durability of Cdc7 inhibition after washout (pMCM2 Ser53); format: cell-based, human; conditions: 24 hours after washout
Procedure: The durability of drug-induced Cdc7 inhibition was investigated in Colo-205 cells treated with two concentrations of SRA141 (0.1 μM and 1 μM) for 48 hours, followed by either immediate cell harvest, or removal of the drug incubate followed by an additional 24 hours incubation prior to cell harvest. Phosphorylation of MCM2 at Ser53, a target site of Cdc7 activity, was compared between the two conditions.

[7] = system: pMCM2-S40, pMCM2-S53, pMCM2-S41, pHH3; assay: Immunohistochemistry in rat MV-4-11 xenograft tumor and skin; format: in vivo
Procedure: Rats bearing subcutaneous biphenotypic B myelomonocytic leukemia MV-4-11 tumors were treated with SRA141 at 75 mg/kg or vehicle, BID, or with SRA141 at 100 mg/kg, QD, for 5 days. Tumors were collected from the animals 12 hours after administration of the last dose. Formalin fixed paraffin-embedded tumor and/or skin were assessed by immunohistochemistry for total MCM2, phosphorylated MCM2 at Serine 40 (pMCM2-S40) and phosphorylated MCM2 at Serine 53 (pMCM2-S53), phosphorylated MCM2 at Serine 41 (pMCM2-S41), and phosphorylated-Histone H2A.X at Serine 139 effects at steady-state.
Tumor cells in xenograft tumors (but not stroma or surrounding rat tissue) were scored. Scoring is performed semi-quantitatively with the main components to scoring tumor cells for total MCM2, pMCM2-S53, pMCM2-S40, and gH2AX reactivity as percentages at differential intensities and H-Scores. Percentage and intensity measures are estimated by a scientist in the same relative region of tumor (one 40×-field from the bottom edge) within each xenograft sample.
The H-Score approach used to evaluate the xenograft tissues requires recording the percentage of tumor cells with nuclear staining at a corresponding differential intensity on a four-point semi-quantitative scale (0, 1+, 2+, 3+). […]
The H-Score is calculated by summing the percentage of cells with intensity of expression (brown staining) multiplied by their corresponding differential intensity on a four-point semi-quantitative scale (0, 1+, 2+, 3+). […]
Epithelial cells of the epidermis in rat skin samples were scored […] by two scientists. Scoring was performed quantitatively with the main component to scoring epidermal cells for total MCM2, pMCM2-S53, pMCM2-S40, and gH2AX reactivity as counts of positive cells. […] For pMCM2-S53 and pMCM2-S40, the number of positive cells in a 10× field at the four representative regions was counted. For gH2Ax, the number of positive cells in a 20× field at the four representative regions was counted. Cells were counted if staining was readily observed at 10× or 20×, regardless of intensity. Cells were only counted within the flat epidermis and not in regions of invagination in order to consistently capture the same total area.
The number of positive skin cells counted across the regions analyzed for each skin sample were averaged for each biomarker. […]
Skin cell counts were performed by recording the number of positive cells (at any intensity) counted by two independent scientists in multiple regions of skin (two regions for total MCM2, four regions for pMCM2 and gH2AX) that are in the same approximate location for each sample. The number of positive cells recorded at each skin region for each biomarker were averaged for each sample. […]

CCOC(=O)C1=C(NN2CCN(CC(F)(F)F)CC2)O/C(=C\c2c[nH]c3ncccc23)C1=O [SRA141]
metabolic stability ([1]; human hepatocytes): favorable metabolic stability
number of metabolites in the human matrix ([1]; of eleven across species): 6
bioavailability [2]: 31 to 54%
primary AML samples responding with a Therapeutic Index [(Primary AML IC50)÷(BMNC control IC50)] ([3]; 9 primary AML samples): 5 out of 9
IC50 ([3]; AML810 censored, read-out: mean IC50, AML samples): ~0.16 µM
IC50 ([3]; AML-blast progenitor 180, read-out: IC50): 0.337 µM
IC50 ([3]; AML-blast progenitor 190, read-out: IC50): 0.073 µM
IC50 ([3]; AML-blast progenitor 200, read-out: IC50): 0.119 µM
IC50 ([3]; AML-blast progenitor 250, read-out: IC50): 0.159 µM
IC50 ([3]; AML-blast progenitor 260, read-out: IC50): 0.14 µM
IC50 ([3]; AML-blast progenitor 717, read-out: IC50): 0.118 µM
IC50 ([3]; AML-blast progenitor 810 (sample censored), read-out: IC50): 0.831 µM
IC50 ([3]; AML-blast progenitor 915, read-out: IC50): 0.177 µM
IC50 ([3]; AML-blast progenitor 917, read-out: IC50): 0.202 µM
IC50 ([3]; with AML 810, read-out: Mean AML-blast progenitor IC50 (with AML 810)): 0.24 ± 0.234 µM
IC50 ([3]; without AML 810, read-out: Mean AML-blast progenitor IC50 (without AML 810)): 0.166 ± 0.08 µM
IC50 ([4]; Normal bone marrow 111, read-out: IC50): 0.165 µM
IC50 ([4]; Normal bone marrow 525 (first line), read-out: IC50): 0.375 µM
IC50 ([4]; Normal bone marrow 525 (second line), read-out: IC50): 0.212 µM
IC50 ([4]; mean of 3 samples, read-out: Mean normal bone marrow IC50): 0.251 ± 0.11 µM
IC50 ([4]; read-out: mean IC50, normal bone marrow preparations): 0.25 µM
systemic exposure versus dose [5]: systemic exposure increased with an increase in the oral dose
Cdc7 activity (pMCM2 Ser53) after washout ([6]; 0.1 μM for 48 hours): recovery of Cdc7 activity by 24 hours following compound washout
Cdc7 activity (pMCM2 Ser53) after washout ([6]; 1 μM for 48 hours): prolonged pMCM2 inhibition was observed at 24 hours following washout
pMCM2 at S40 and S53 in tumor ([7]; 75 mg/kg BID or 100 mg/kg QD, 5 days, 12 hours after last dose): substantial decreases
mitotic (pHH3) and apoptotic cells (H&E) in tumors compared to vehicle ([7]; after 5 days of dosing): fewer mitotic cells and an increased presence of apoptotic cells
pMCM2-S41 ([7]; after SRA141 treatment): no effects
pMCM2-S40 in tumor and skin versus dose ([7]; various dosages): dose-dependent decrease
